Laboratory results from the SangsterLogP compilation.

What was measured:
[1] = method code SF-AS, from DOI: 10.1016/s0021-9673(01)88398-9; settings: pH 5.0

| Compound | logP | logD [1] |
| --- | --- | --- |
| O=c1ccnc2n1CCCC2 | 0.13 | – |
| CCc1c(C)nc2cccc(C)n2c1=O | – | 1.86 |
| Cc1cccc2nccc(=O)n12 | – | 0.74 |
| CCc1cnc2cccc(C)n2c1=O | 1.58 | – |
| CCc1c(C)nc2n(c1=O)C(C)CCC2 (stereo not given) | – | 1.43 |
| CCCc1c(C)nc2cccc(C)n2c1=O | – | 2.22 |
| Cc1cc(=O)n2c(n1)CCCC2C (stereo not given) | – | 0.67 |
| CC1CCCc2nccc(=O)n21 (stereo not given) | 0.37 | – |
| Cc1cnc2cccc(C)n2c1=O | – | 1.27 |
| O=c1ccnc2ccccn12 | 0.3 | – |
